Measured values: patent US20250302913A1, “LACRIPEP PROMOTES NEUROREGENERATION AND MAINTAINS EPITHELIAL PROGENITOR CELL IDENTITY” (The Regents of The University of California, priority 2022, published 2025)

Tests used:
Aire KO mice = experiment: Basal tear secretion (phenol red thread) in Aire KO dry eye mice; assay type: in vivo, mouse; details: day 15, 4 μM topical 3x per day for 14 days
Experimental: To determine the impact of lacripep on physiological (basal) tear secretion, lacripep (4 μM) or phosphate buffered saline (PBS, control) was topically applied to Aire KO corneas 3 times (3×) per day for 14 consecutive days (from 5 to 7 wk of age) and tear production was measured at day 0, 7 and 15 (FIG. 1A).
All procedures were approved by the UCSF Institutional Animal Care and Use Committee (IACUC) and adhered to the NIH Guide for the Care and Use of Laboratory Animals (Approval number: 332AN089075-02). Wild type (WT) and Aire-deficient mice on the BALB/c background (BALB/c Aire KO) were the gift of Mark Anderson, University of California, San Francisco. Adult female mice (aged between 5 and 7 weeks) were used in all experiments. […] Appropriate sample size was calculated using power calculations. […]
Mice were anesthetized with isoflurane and basal tear secretion was then measured using a Zone-Quick phenol red thread (as indicated by the length of the tear-absorbed region in 15 seconds). Stimulated tear secretion was measured after 4.5 mg/kg of pilocarpine diluted in saline was injected into the peritoneum (i.p.). Ten minutes later, mice were anesthetized with isoflurane and tear secretion was measured using a Zone-Quick phenol red thread (Showa Yakuhin Kako Co. Ltd., Tokyo, Japan).

[1] = tested on: Rest, Isl1, Rreb1 regulons; experiment: iRegulon transcription factor-gene target regulatory network analysis; parameters: species or system mouse; details: day 7; lacripep vs PBS; NES>3
Excerpt: To identify candidate transcription factors that regulate these gene sets, we performed transcription factor (TF)-gene target regulatory network analysis using iRegulon (37). iRegulon identifies transcription factor-binding motifs that are enriched in the genomic regions of a query gene set and predicts transcription factors that bind to them. […] ISL1 plays an essential role in the generation of sensory and sympathetic neurons (38 39), REST is a master regulator of neurogenesis that plays a role in modulating synaptic plasticity (40-42) and RREB1 regulates axon injury (43). […] The Isl1 exclusive gene set was also extensively enriched in genes involved with functional and structural nerve-mediated processes including visual perception (P=3.5E-27, e.g., Capb4, Vsx1), response to stimulus (P=9.7E-19; e.g., Slc17a7, Ush2a), synapse (P=9.4E-8, e.g. Magi2, Synpr) and neuron projection (P=6.4E-6, e.g., Cdh23, Kif1a) (FIG. 4F).
To identify regulatory networks underlying the impact of lacripep on tissue regeneration, we used the cytoscape application iRegulon (37) to predict master regulators, i.e., transcription factors whose regulons (transcriptional target sets) are highly enriched with the input gene list.

CD4+ T cells = experiment: CD4+ T cell infiltration of cornea and lacrimal gland; assay type: in vivo, mouse; details: day 15
Excerpt: We next tested whether lacripep restored basal cell identity and barrier function by reducing immune cell infiltration. Prolonged desiccating stress from reduced tear production elicits an immune response in which activated CD4+ T cells home to the corneal epithelium and stroma (primarily accumulating at the limbal region) to modulate epithelial differentiation (17) and direct the development of autoimmune mediated dry eye (18).
For immunofluorescent analysis, 7 or 20 μm tissue sections were incubated with the following primary antibodies: mouse anti-ZO1 conjugated to Alexa594 (1:1000, Life Technologies, Cat 339194), rabbit anti-KRT6A (1:800, Cell Signaling, Cat 4912S), chicken anti-KRT14 (1:1500, Santa Cruz, Cat 515882), rat anti-Ki67 (1:200, Biolegend, 652405), rat anti-CD4 (1:200, Santa Cruz), rabbit anti-TUBB3 (1:500, Cell Signaling, Cat 5568S), and rat anti-Ecadherin (1:300, Life Technologies, Cat 131900). Antibodies were detected using Cy2-, Cy3- or Cy5-conjugated secondary Fab fragment antibodies (Jackson Laboratories), and nuclei were stained with Hoechst 33342 (1:3000, Sigma-Aldrich). Fluorescence was analyzed using a Zeiss LSM 900 confocal microscope or Zeiss Yokogawa Spinning disk confocal microscope with images assessed using NIH ImageJ software, as described below.
Quantification of CD4+ T cells in cornea and Lacrimal gland. […]

With “Ac-KQFIENGSEFAQKLLKKFSLLKPWA-NH2 [lacripep, amino terminus acetylated, carboxyl terminus aminated]” as the substance, how does the “basal tear volumes relative to WT” value (Aire KO mice) read?
Its value is 83 % of WT.

And the “upregulated target genes of Isl1 regulon” value [1]?
Its value is 394 genes.

And the “upregulated target genes of Rest regulon” value [1]?
The value was 184 genes.

And the “upregulated target genes of Rreb1 regulon” value [1]?
The value was 254 genes.

And the “CD4+ T cell infiltration of cornea” value (CD4+ T cells; Aire KO corneas regardless of treatment)?
Its value is “extensively infiltrated by CD4+ T cells”.

And the “CD4+ T cell infiltration of lacrimal glands” value (CD4+ T cells; Aire KO lacrimal glands regardless of treatment)?
The value was “extensively infiltrated by CD4+ T cells”.
